# Source: patent publication US11427552B2, “Heterocyclic compounds useful in the treatment of disease” (EPIGEN BIOSCIENCES, INC., priority 2013, dated 2022)
# Molecular target: T1, LPA1R (Homo sapiens, UniProt Q92633)
# T1 construct: host or cells: LPA1R expressing cells (Millipore, GPCR Profiler)
# Assay: LPA1R Ca2+ flux functional assay (antagonist mode, FLIPR)
# Type: cell-based
# Settings: inhibition of LPA-stimulated Ca2+ flux, LPA at EC80, LPA1R expressing cells (Millipore); read-out: LPA1 R Antagonist Activity
# Protocol: Inhibition of LPA-stimulated Ca^2+ flux was used to assess compound potency using FLIPR technology in a 96 well plate format. The assay buffer used was a modified Hanks Balanced Salt Solution (HBSS) where HBSS was supplemented to contain 20 mM HEPES and 2.5 mM Probenecid at pH7.4 (Millipore, GPCR Profiler®). LPA1R expressing cells (Millipore) were plated and prepared 24 hours prior to assay of test articles. Ca^2+ ion flux was assessed from fluorescence of a Fluo-based No Wash Ca^2+ dye. Antagonist data are generated from plates with LPA concentrations sufficient to generate 80% efficacy [EC80]. Percentage inhibition was calculated from a reduction of efficacy according to concentration of compounds of Formula I-VI. For dose responses the inhibition data was used to calculate compound IC50. The agonist assay was conducted on a FLIPR^TETRA instrument where the test compound(s), vehicle controls, and reference agonist were added to the assay plate after a fluorescence baseline was established. The agonist assay was a total of 180 seconds and was used to assess each compound's ability to activate each GPCR assayed. Upon completion of the agonist assay, the assay plate was removed from the FLIPR^TETRA and incubated at 25° C. for seven (7) minutes. After the incubation period, the assay plate was placed back in the FLIPR^TETRA and the antagonist assay was initiated. Using EC80 potency values determined during the agonist assay, all pre-incubated sample compound wells were challenged with EC80 concentration of reference agonist after establishment of a fluorescence baseline. The antagonist assay was conducted using the same assay plate that was used for the agonist assay. The antagonist assay was conducted on a FLIPR^TETRA instrument where 9 vehicle controls and EC80 concentration of reference agonist were added to appropriate wells. The antagonist assay was a total of 180 seconds and was used to assess each compound's ability to inhibit each GPCR assayed. All assay plate data were subjected to appropriate baseline corrections. After baseline corrections were applied, maximum fluorescence values were exported and data processed to calculate percentage activation (relative to Emax reference agonist and vehicle control values), percentage inhibition (relative to EC80 and vehicle control values), and additional statistical values (i.e. Z′, percentage variation between replicate data values) to assess the quality of each plate. Where assay plate data were rejected, additional experiments were conducted. All dose response curves were generated using GraphPad Prism. The curves were fit by utilizing “Sigmoidal Dose Response (Variable Slope)” equation where the bottom parameter was fixed to “0.” Where appropriate, the top parameter was fixed to “100” to better predict potency values when a full curve was not generated by the concentrations assayed.
# T1 sequence (Q92633 whole entry): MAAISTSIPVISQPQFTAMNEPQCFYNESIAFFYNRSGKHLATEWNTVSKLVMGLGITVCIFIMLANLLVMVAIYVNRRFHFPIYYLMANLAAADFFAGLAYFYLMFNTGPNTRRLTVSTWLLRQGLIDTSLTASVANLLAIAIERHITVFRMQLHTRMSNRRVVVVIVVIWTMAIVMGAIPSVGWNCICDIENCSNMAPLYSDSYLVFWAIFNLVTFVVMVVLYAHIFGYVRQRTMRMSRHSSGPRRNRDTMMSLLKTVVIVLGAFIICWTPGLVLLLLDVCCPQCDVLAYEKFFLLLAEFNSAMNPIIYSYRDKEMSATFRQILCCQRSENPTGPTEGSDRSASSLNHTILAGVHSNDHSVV
row,Structure (SMILES),IC50 [nM]
1,"Cc1noc(-c2ccc(COC(Cc3ccc(Cl)cc3)C(=O)O)cc2)c1OC(=O)O[C@H](C)c1ccccc1 (mixture of isomers) [Example 45, (RS)-3-(4-Chloro-phenyl)-2-{4-[3-methyl-4-((R)-1-phenyl-ethoxycarbonyloxy)-isoxazol-5-yl]-benzyloxy}-propionic Acid]",< 300
2,"Cc1nn(C)c(-c2ccc(C(=O)N[C@H](Cc3ccc(F)cc3)C(=O)O)cc2)c1NC(=O)O[C@H](C)c1ccccc1 [Example 9, (R)-2-[[4-[2,5-dimethyl-4-((R)-1-phenylethoxycarbonylamino)pyrazol-3-yl]benzoyl]amino]-3-(4-fluorophenyl)propanoic Acid]",> 50000
3,"Cc1cc(C2(C(=O)O)CC2)ccc1-c1ccc(-n2ncc(F)c2NC(=O)O[C@H](C)c2ccccc2Cl)cc1 [Example 52, (R)-1-(4′-{5-[1-(2-Chloro-phenyl)-ethoxycarbonylamino]-4-fluoro-pyrazol-1-yl}-2-methyl-biphenyl-4-yl)-cyclopropanecarboxylic Acid]",< 300
4,"C[C@@H](OC(=O)Nc1c(F)cnn1-c1ccc(-c2ccc(C3(C(=O)O)CC3)cc2)cc1)c1ccccc1Cl [Example 53, (R)-1-(4′-{5-[1-(2-Chloro-phenyl)-ethoxycarbonylamino]-4-fluoro-pyrazol-1-yl}-biphenyl-4-yl)-cyclopropanecarboxylic Acid]",< 300
5,"Cc1noc(-c2ccc(C(=O)N[C@H](CC3CC3)C(=O)O)cc2)c1NC(=O)O[C@H](C)c1ccccc1Cl [Example 17, (R)-2-(4-{4-[(R)-1-(2-chloro-phenyl)-ethoxycarbonylamino]-3-methyl-isoxazol-5-yl}-benzoylamino)-3-cyclopropyl-propionic Acid]",< 300
6,"Cc1c(NC(=O)O[C@H](C)c2ccccc2)c(-c2ccc(C(=O)N[C@H](Cc3ccc(Cl)cc3)C(=O)O)cc2)nn1C [Example 14, (R)-3-(4-chlorophenyl)-2-[[4-[1,5-dimethyl-4-((R)-1-phenylethoxycarbonyl-amino)pyrazol-3-yl]benzoyl]amino]propanoic Acid]",> 50000
